Laboratory results from US7507839B2, “Therapeutic ion channel blocking agents and methods of use thereof” (The Walter and Eliza Hall Institute of Medical Research, priority 2002, dated 2009).
Values belong to the compound of their own block, whether it stands above or below them.

Columns and labels:
Kv1.3 = Kv1.3 (UniProt P16390); assay: Whole-cell patch-clamp block of Kv1.3 current; assay type: cell-based; details: for Kd: L929 cells stably expressing mKv1.3 or activated human T cells, fit of normalized peak current to Hill equation
Description: The effectiveness of the generated compounds in blocking the Kv1.3 current was assayed on L929 cells stably expressing mKv1.3 or on activated human T cells. The generation of this cell line has been previously described (Grissmer et al. (1995) Mol. Pharmacol. 45: 1227). The cells were grown in Dulbecco's modified Eagle's medium containing 10% fetal calf serum, 2 mM L-glutamine, 1 mM Na^+ pyruvate, 100 units/ml penicillin, 100 μg/ml streptomycin and 250 μg G418 (to keep them under selection pressure). The cells were studied in the whole-cell configuration of the patch-clamp technique. The holding potential in all experiments was −80 mV. Currents were recorded in normal Ringer solution (160 mM NaCl, 4.5 mM KCl, 2 mM CaCl2, 1 mM MgCl2, 10 mM HEPES, pH 7.4, 290-310 mOsm) with an internal pipette solution containing 134 mM KF, 2 mM MgCl2, 10 mM HEPES, 10 mM EGTA (pH 7.2, 290-310 mOsm). If currents exceeded 2 nA 60-80% series resistance compensation was used. 200-ms depolarising pulses to 40 mV were applied every 30 s (Grissmer at al. (1995) Mol. Pharmacol. 45: 1227). Each compound was tested twice at two different concentrations. Kd values were determined by fitting the reduction of the normalized peak current to the Hill equation. […]

Kv1.1 = Kv1.1 (Homo sapiens, UniProt Q09470); assay: Whole-cell patch-clamp, Kv1.1; assay type: cell-based
Sequence of Kv1.1 (Q09470 whole entry): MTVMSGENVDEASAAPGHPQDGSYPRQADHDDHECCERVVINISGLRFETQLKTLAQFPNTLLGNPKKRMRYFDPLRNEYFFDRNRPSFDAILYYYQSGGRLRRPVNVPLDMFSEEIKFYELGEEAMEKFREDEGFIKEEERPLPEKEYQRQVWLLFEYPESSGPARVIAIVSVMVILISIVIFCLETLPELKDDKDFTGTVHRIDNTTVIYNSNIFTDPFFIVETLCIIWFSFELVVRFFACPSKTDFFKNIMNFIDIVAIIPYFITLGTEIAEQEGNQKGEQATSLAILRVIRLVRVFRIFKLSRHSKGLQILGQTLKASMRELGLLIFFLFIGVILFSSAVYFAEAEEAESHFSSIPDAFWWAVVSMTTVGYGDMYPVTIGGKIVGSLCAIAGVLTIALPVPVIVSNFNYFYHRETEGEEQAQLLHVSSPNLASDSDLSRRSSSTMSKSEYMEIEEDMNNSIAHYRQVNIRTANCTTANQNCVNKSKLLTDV

Kv1.2 = Kv1.2 (Homo sapiens, UniProt P16389); assay: Whole-cell patch-clamp, Kv1.2; assay type: cell-based
Sequence of Kv1.2 (P16389 whole entry): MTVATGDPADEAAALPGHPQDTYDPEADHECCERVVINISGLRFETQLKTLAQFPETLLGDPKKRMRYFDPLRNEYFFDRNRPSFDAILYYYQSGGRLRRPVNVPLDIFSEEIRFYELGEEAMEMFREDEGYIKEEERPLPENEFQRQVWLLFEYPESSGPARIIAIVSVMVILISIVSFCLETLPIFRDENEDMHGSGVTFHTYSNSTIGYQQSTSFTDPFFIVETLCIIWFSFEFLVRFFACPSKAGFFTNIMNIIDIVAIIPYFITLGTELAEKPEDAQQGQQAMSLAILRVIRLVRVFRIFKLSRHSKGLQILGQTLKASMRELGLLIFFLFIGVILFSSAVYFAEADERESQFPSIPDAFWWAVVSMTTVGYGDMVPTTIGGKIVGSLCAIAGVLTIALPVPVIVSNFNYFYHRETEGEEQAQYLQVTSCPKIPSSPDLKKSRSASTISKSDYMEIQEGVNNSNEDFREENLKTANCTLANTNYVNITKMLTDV

[1] = system: peripheral blood mononuclear cells; assay: [3H]-Thymidine incorporation assay; assay type: cell-based, human; details: anti-CD3 stimulated PBMC, 48 h; for Normalised [3H]-TdR incorporation: untreated control = 1
Description: [^3H]-thymidine incorporation is a widely used test to assay the proliferative activity of human and rodent lymphocytes. As cells divide [^3H]-thymidine will be incorporated into the newly synthesised DNA of the resulting daughter cells. The faster cells grow the more radioactive [^3H]-thymidine will be incorporated. Any compound that inhibits lymphocytes proliferation will reduce the uptake of radioactivity by the cells treated with it compared to the untreated controls.
Example 2 was tested to determine its ability to inhibit [H]-thymidine incorporation. Resting peripheral blood mononuclear cells from healthy volunteers were seeded at 2×10^5 cells per well in medium (RPMI 1640 supplemented 10% fetal calf serum, 2 mM glutamine, 1 mM sodium pyruvate, 1% nonessential amino acids, 100 units/ml penicillin, 100 μg/ml streptomycin and 50 μM β-mercaptoethanol) in flat-bottom 96 well plates (final volume 200 μl). Cells were pre-incubated with the compound of example 2 for 60 min, and were stimulated with 5 ng/ml anti-CD3 Ab) for 48 h. [^3H]-Thymidine (1 μCi per well) was added for the last 6 h. Cells were harvested onto glass fibre filters and radioactivity measured in a scintillation counter. All experiments were done in triplicate.

[2] = Solubility in aqueous media; assay type: physicochemical; details: judged by whether testable in the cell-based T-cell proliferation assay
Text: (§1) The comparative example 4 was thus considered to lack therapeutically use.
This was unexpected given the lipophilicity of these compounds. The n-butyl fragment in example 2 is considerably more lipophilic than the phenyl group located in the equivalent position of comparative example 4 (fragment hydrophobicity value 2.5 verses 1.9 respectively).

Kv1.4 = Kv1.4 (Homo sapiens, UniProt P22459); assay: Whole-cell patch-clamp, Kv1.4; assay type: cell-based
Sequence of Kv1.4 (P22459 whole entry): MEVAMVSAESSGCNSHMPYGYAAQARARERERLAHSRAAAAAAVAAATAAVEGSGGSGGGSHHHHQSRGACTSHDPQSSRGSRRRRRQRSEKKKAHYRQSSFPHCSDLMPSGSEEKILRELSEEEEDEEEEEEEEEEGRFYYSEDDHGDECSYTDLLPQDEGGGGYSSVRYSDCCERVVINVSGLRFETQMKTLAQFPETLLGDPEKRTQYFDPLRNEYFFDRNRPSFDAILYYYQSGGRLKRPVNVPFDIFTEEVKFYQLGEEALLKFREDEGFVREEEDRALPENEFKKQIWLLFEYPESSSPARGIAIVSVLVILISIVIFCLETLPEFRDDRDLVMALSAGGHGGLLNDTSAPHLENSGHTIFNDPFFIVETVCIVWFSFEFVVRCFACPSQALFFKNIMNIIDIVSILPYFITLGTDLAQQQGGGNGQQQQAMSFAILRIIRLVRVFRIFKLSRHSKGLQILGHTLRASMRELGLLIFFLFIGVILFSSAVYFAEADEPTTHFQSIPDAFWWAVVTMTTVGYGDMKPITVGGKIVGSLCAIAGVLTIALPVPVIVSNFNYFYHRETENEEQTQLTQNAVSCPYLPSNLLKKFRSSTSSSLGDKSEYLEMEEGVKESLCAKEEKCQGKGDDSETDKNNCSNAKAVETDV

Kv1.5 = Kv1.5 (Homo sapiens, UniProt P22460); assay: Whole-cell patch-clamp, Kv1.5; assay type: cell-based
Sequence of Kv1.5 (P22460 whole entry): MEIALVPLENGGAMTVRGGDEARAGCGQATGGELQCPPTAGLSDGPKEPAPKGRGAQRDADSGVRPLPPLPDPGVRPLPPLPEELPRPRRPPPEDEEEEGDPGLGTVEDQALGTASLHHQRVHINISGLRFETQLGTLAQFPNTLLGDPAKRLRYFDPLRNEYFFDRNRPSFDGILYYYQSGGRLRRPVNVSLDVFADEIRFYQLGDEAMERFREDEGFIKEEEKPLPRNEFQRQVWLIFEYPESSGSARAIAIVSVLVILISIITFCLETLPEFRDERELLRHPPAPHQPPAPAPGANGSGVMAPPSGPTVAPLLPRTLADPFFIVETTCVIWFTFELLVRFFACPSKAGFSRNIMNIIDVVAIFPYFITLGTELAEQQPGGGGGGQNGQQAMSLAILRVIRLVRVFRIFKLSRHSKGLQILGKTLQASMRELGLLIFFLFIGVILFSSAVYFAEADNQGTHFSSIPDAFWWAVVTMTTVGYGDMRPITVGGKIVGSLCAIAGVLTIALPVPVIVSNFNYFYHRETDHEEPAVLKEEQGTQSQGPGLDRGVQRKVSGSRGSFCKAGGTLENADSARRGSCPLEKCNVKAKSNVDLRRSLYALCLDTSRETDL

IKCa1 = IKCa1 (Homo sapiens, UniProt O15554); assay: Whole-cell patch-clamp, IKCa1; assay type: cell-based
SKMI = SKMI (Homo sapiens, UniProt P35499); assay: Whole-cell patch-clamp, SKMI; assay type: cell-based; details: at 10 μM
Sequence of SKMI (P35499 whole entry): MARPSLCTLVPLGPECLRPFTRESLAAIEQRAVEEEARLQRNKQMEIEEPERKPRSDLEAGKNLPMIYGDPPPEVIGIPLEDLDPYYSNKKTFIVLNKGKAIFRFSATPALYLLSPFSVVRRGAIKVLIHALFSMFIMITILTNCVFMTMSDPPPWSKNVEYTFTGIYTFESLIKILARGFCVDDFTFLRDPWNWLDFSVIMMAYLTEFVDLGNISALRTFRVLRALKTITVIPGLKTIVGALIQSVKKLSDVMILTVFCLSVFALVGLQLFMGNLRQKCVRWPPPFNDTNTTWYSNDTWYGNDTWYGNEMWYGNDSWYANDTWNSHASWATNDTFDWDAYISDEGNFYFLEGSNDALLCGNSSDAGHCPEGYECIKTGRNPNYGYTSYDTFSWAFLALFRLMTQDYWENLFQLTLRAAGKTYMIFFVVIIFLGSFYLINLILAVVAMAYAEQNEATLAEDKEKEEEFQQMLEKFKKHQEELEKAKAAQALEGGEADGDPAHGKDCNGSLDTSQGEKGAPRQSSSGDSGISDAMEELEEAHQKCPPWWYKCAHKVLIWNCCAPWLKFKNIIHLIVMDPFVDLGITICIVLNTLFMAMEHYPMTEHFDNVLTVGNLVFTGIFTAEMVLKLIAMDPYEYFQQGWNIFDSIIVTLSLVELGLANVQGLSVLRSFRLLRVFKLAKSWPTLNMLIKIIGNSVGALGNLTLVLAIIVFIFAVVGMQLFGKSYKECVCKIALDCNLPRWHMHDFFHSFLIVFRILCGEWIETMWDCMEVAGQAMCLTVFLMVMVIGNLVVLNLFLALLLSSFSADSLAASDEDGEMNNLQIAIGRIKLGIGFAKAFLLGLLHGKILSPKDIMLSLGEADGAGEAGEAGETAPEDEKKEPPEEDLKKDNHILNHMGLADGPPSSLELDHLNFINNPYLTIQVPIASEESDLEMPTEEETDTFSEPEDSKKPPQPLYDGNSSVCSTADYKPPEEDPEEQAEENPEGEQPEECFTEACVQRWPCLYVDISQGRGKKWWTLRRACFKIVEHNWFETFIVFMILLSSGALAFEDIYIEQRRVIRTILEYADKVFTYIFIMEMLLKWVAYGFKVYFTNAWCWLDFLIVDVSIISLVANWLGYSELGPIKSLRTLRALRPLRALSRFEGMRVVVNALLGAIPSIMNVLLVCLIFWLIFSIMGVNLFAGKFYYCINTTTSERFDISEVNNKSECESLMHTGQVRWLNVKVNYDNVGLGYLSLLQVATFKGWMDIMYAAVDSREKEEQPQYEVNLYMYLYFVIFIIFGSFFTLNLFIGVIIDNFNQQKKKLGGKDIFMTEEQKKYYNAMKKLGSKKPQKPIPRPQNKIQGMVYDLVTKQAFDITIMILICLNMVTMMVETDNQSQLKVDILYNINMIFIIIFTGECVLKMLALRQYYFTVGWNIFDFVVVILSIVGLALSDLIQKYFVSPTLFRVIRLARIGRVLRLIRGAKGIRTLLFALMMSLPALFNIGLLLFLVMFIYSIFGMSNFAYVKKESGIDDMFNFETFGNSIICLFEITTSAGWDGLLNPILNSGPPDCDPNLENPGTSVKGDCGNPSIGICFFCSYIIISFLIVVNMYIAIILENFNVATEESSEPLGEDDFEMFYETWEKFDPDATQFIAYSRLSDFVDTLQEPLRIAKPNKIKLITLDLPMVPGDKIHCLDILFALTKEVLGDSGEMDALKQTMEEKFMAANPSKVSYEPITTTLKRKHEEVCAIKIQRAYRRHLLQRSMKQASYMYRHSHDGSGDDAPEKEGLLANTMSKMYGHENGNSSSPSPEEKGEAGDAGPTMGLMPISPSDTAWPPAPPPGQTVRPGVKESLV

Stability = assay type: physicochemical
Text: as §1

SMILES: COc1c(C(C)=O)c(OCc2ccccc2COc2c(C(C)=O)c(OC)c3ccoc3c2OC)c(OC)c2occc12 [compound 6, reference compound]
Kd (Kv1.3): 7 µM

SMILES: COc1c2occc2cc2ccc(=O)oc12 [Comparative Example 2 (3-MOP)]
Kd (Kv1.3): 160 µM

SMILES: COc1c(C(C)=O)c(O)c(OC)c2occc12 [Comparative Example 1 (Khellinone)]
Kd (Kv1.3): 70 µM

SMILES: COc1c(C(C)=O)c(OCCOCCOc2c(C(C)=O)c(OC)c3ccoc3c2OC)c(OC)c2occc12 [Example 5]
Kd (Kv1.3): 4 µM | Solubility in aqueous media [2]: significantly more soluble in aqueous conditions than comparative example 2

SMILES: O=c1ccc2cc3ccoc3c(OCc3ccc(COc4c5occc5cc5ccc(=O)oc45)cc3)c2o1 [compound 3, reference compound]
Kd (Kv1.3): 17 µM

SMILES: COc1c(C(C)=O)c(OCc2ccc(COc3c(C(C)=O)c(OC)c4ccoc4c3OC)c(C(=O)O)c2)c(OC)c2occc12 [Example 8, 2,5-Bis(5-acetyl-4,7-dimethoxybenzofuran-6-yloxymethyl)benzoic acid]
Kd (Kv1.3): 5 µM

Stronger by Kd (Kv1.3), values ahead:

Kind of block (Kv1.3) (Kv1.3): Block phasic | Kd (Kv1.3): 0.68 µM | Kd (Kv1.1): 0.32 µM | Kd (Kv1.2): 0.25 µM | EC50 ([1]; Homo sapiens, read-out: EC50, inhibition of [3H]-thymidine incorporation): ~0.8 µM
SMILES: COc1c(C(C)=O)c(OCCCCCCOc2c(C(C)=O)c(OC)c3ccoc3c2OC)c(OC)c2occc12 [Example 2]
Normalised [3H]-TdR incorporation ([1]; 100 nM): 0.86 +/− 0.04 | Normalised [3H]-TdR incorporation ([1]; 250 nM): 0.76 +/− 0.06 | Normalised [3H]-TdR incorporation ([1]; 1 μM): 0.38 +/− 0.05 | Normalised [3H]-TdR incorporation ([1]; 10 μM): 0.01 +/− 0.003 | Solubility in aqueous media [2]: soluble enough in aqueous media to be tested

Kd (Kv1.3): 0.82 µM | Kd (Kv1.2): 1.5 µM
SMILES: COc1c(C(C)=O)c(OCCCCCOc2c(C(C)=O)c(OC)c3ccoc3c2OC)c(OC)c2occc12 [Example 1]
Solubility in aqueous media [2]: soluble enough in aqueous media to be tested

Kd (Kv1.3): 1.1 µM | Effect on Kv1.2 (Kv1.2; at 5 μM): No effect
SMILES: COc1c(C(C)=O)c(OCc2ccc(COc3cc4occc4c(OC)c3C(C)=O)cc2)cc2occc12 [Example 4, 1,4-bis(5-acetyl-4-methoxybenzofuran-6-yloxymethyl)benzene]

Kd (Kv1.3): 0.56 µM
SMILES: COc1c(C(C)=O)c(OCc2cccc(COc3c(C(C)=O)c(OC)c4ccoc4c3OC)c2)c(OC)c2occc12 [compound 5, reference compound]

Kd (Kv1.3): 0.28 µM | Kd (Kv1.1): 3 µM | Kd (Kv1.2): 5 µM | Kd (Kv1.4): 2.2 µM | Kd (Kv1.5): 1.1 µM | Kd (IKCa1): > 20 µM | Effect on SKMI (SKMI): No effect | Stability (Stability): good stability
SMILES: COc1c(C(C)=O)c(OCc2ccc(COc3c(C(C)=O)c(OC)c4ccoc4c3OC)cc2)c(OC)c2occc12 [compound 4]
Solubility in aqueous media [2]: so poorly soluble in aqueous media

Kd (Kv1.3): 3 µM | melting point: 87 to 89 °C
SMILES: COC(=O)c1cc(COc2c(C(C)=O)c(OC)c3ccoc3c2OC)ccc1COc1c(C(C)=O)c(OC)c2ccoc2c1OC [Example 7, 2,5-Bis(5-acetyl-4,7-dimethoxy-6-benzofuran-6-yloxymethyl)benzoic acid, methyl ester]
